Reference: US5849587A, “Method of inhibiting viral replication in eukaryotic cells and of inducing apoptosis of virally-infected cells” (Cornell Research Foundation, Inc., priority 1995, dated 1998)
“Also recorded” adds a separate entry of the source.

Experiments:
Deoxyhypusyl hydroxylase = target: T1, Deoxyhypusyl hydroxylase (Homo sapiens, UniProt Q9BU89); assay: Cellular deoxyhypusyl hydroxylase (hypusine formation) inhibition, human B-cells and human smooth muscle cells; format: cell-based; details: for Deoxyhypusyl hydroxylase ID50 (cellular): concentration for half-maximal inhibition
T1 construct: endogenous in cells
T1 sequence (Q9BU89 1-302): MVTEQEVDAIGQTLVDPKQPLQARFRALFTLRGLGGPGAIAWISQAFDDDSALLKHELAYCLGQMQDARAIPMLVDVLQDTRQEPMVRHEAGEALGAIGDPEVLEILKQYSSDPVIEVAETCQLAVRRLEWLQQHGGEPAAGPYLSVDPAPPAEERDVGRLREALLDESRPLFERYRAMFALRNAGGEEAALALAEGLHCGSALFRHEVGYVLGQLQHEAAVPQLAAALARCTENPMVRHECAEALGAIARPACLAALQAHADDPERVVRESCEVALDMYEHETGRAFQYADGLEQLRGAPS
Protocol: The cell-free enzyme assay was performed to test a pilot peptidomimetic which can be equipped with hydroxypyridone warheads. The cell culture studies were performed to establish the inherent inhibitory potency of such hydroxypyridones.
DOHH Assay. The intracellular conversion of peptide-bound deoxyhypusine to peptidyl hypusine was determined after preincubation of human T lymphocyte-derived cells (i.e. ACH-2) [Clouse et al., J. Immunol. 142, 431-438 (1989), which is hereby incorporated by reference] with the hypusine inhibitors mimosine and HK-1 for 60 minutes, followed by labeling for 21 hours with ^3 H-spermidine (3.75 μCi/ml) in wells containing 3×10^6 cells suspended in 8 ml of serum-supplemented and antibiotic-containing RPMI 1640 medium. Cells were then split into two groups, one of them being harvested immediately to assess degree of DOHH inhibition, and the other harvested after transfer of the cells into inhibitor-free medium for 2 hours to measure resumption of DOHH activity. Harvesting consisted in precipitation of washed cells with 10% TCA containing 1 mM each of putrescine, spermidine, and spermine. Cellular proteins from each sample were then hydrolyzed in 6N HCl at 110° C. for 16 hours. The hydrolysate was analyzed for labeled amino acids on an amino acid analyzer by published methods [Park et al., J. Biol. Chem., 257, 7217-7222 (1982), which is hereby incorporated by reference]. The retention times of hypusine and deoxyhypusine were determined from standards. Similar studies were performed in human B-cells and human smooth muscle cells.
The concentration required for half-maximal inhibition (ID50) of the cellular enzyme activity is identified for each compound.

[1] = system: HIV-1 p24 antigen, H9 cells; assay: p24 antigen levels (ELISA) in chronically HIV-1 infected H9 cells; format: cell-based; details: 48 hours, FIGS. 8 and 9
Protocol: (§1) 1. Dose-dependency of antiviral effect. Cells of the human T lymphocyte line H9, chronically and productively infected with the Lai (IIIb) strain of HIV-1, were harvested during logarithmic proliferation, extensively washed to remove viral antigens and infectious particles, and re-suspendedin serum-supplemented and antibiotic-containing RPMI 1640 medium at a density of 2×10^5 cells/ml. After incubation with increasing concentrations of mimosine or HK-1 for 48 hours, the cells were harvested, lysed, and used to determine the intracellular amount of the p24 antigen derived from the p55 Gag polyprotein, using a commercially available, p24-specific ELISA method (Coulter, Hialeah, Fla.); the same method was also used to quantify the extracellular level of p24 antigen that had accumulated in the supernatant during incubation with the hypusine inhibitors. In addition, titration assays were performed using CEM target cells to measure the infectivity of virus produced in the absence and presence of the hypusine inhibitors using the procedure of Prince et al., Proc. Natl. Acad. Sci. USA 85, 6944-6948 (1988), which is hereby incorporated by reference. The half-maximal tissue culture infectious doses (TCID50) of HIV-1 per ml of test sample were calculated by the Spearman-Karber method.

HIV-1 = assay: Titration assay of infectivity of virus (TCID50) produced by infected H9 cells, CEM target cells; format: cell-based; details: 48 hours, increasing concentrations
Protocol: as §1

[2] = system: uninfected parent cell line CEM; assay: Cell membrane integrity / viability, uninfected parent cells; format: cell-based, human; details: incubation and withdrawal, FIG. 12B
Protocol: FIGS. 12A and B show the loss of cell membrane integrity suffered by HIV-1 producing ACH-2 cells and their uninfected parent cell line CEM during incubation with and after withdrawal of mimosine and HK-1. The black bar indicates the duration of inhibitor exposure, the open bar the duration of inhibitor withdrawal. Cell membrane integrity was determined by the ability of the cells to exclude the low-molecular weight dye trypan blue (FIGS. 12A and B) and to retain the spermidine-derived radioactive label of a single, obligatory intracellular protein species, eIF-5A and its deoxyhypusyl precursor (FIG. 12A).
ACH-2 cells were incubated with hypusine inhibitors (mimosine, HK-1) and induced with PMA as outlined in Example II A, except that the duration of exposure to inhibitor was extended to 18-21 hours and that cells were labeled as detailed in Example I B. Half of the cells were then harvested and processed for detection of apoptosis, while the other half was washed free of inhibitors and re-incubated in fresh medium for 2-4 hours, followed by harvesting and processing for detection of […] apoptosis. Using the same protocol, cultures of the parent CEM cell line were incubated in parallel. […]

[3] = system: uninfected parent cell line CEM; assay: Flow cytometry of genomic DNA 3'-ends (apoptosis), uninfected parent cells; format: cell-based, human; details: for genomic DNA 3'-ends, CEM: 200 μM, 18 hours, FIG. 13
Protocol: FIGS. 13A-F show the flowcytometrically determined distribution of the number of fluorescently labeled 3'-ends in the genomic DNA of HIV-1 producing ACH-2 cells ("ACH-2") and their uninfected parent cell line CEM ("CEM"), both receiving no treatment ("NT") or treatment for 18 hours with either 200 μM mimosine ("MIM") or 200 μM HK-1 ("HK1"). […] This is the hallmark of irreversible auto-destruction of a cell's genetic library.
FIGS. 14A-H show the flowcytometrically determined distribution of the number of fluorescently labeled 3'-ends in the genomic DNA of HIV-1 producing ACH-2 cells ("ACH-2") and of their uninfected parent cell line CEM ("CEM"), both receiving no treatment ("NT") or treatment for 18 hours with 200 μM mimosine ("MIM"), followed by inhibitor withdrawal and reincubation in fresh medium for 2 hours.
ACH-2 cells were incubated with hypusine inhibitors (mimosine, HK-1) and induced with PMA as outlined in Example II A, except that the duration of exposure to inhibitor was extended to 18-21 hours and that cells were labeled as detailed in Example I B. Half of the cells were then harvested and processed for detection of apoptosis, while the other half was washed free of inhibitors and re-incubated in fresh medium for 2-4 hours, followed by harvesting and processing for detection of […] apoptosis. Using the same protocol, cultures of the parent CEM cell line were incubated in parallel. For assessment of apoptosis, cell viability was measured by exclusion of the dye trypan blue, by retention of the ^3 H-spermidine-derived intracellular radioactivity incorporated into the obligatory intracellular protein eIF-5A, and by direct fluorescence detection of the intemucleosomal degradation of genomic DNA. Such irreversible genome degradation signals the activation of pre-programmed suicide mechanisms within any cell, which is the hallmark of apoptosis, and inescapably results in cell death [Compton, Cancer Metast. 11, 105-119 (1992), which is hereby incorporated by reference]. For the latter method, a commercially available kit was used (Oncor, Gaithersburg, Md.). […]

| Structure (SMILES) | Deoxyhypusyl hydroxylase ID50 (cellular) (Deoxyhypusyl hydroxylase) | intra- and extracellular p24 antigen levels [1] | production of infectious HIV-1 particles / infectivity of virus (HIV-1) | cell membrane integrity / viability, uninfected CEM [2] | genomic DNA 3'-ends, CEM [3] | inhibition of deoxyhypusyl hydroxylase activity, i.e. hypusine formation (Deoxyhypusyl hydroxylase) | average fluorescence peak after incubation and withdrawal, CEM ([3]; 200 μM 18 hours, then 2 hours withdrawal, FIG. 14) |
| --- | --- | --- | --- | --- | --- | --- | --- |
| Cc1c(O)c(=O)ccn1C [HK-1, 1,2-dimethyl-3-hydroxypyrid-4-one] | 90 | inhibitory effect on the extracellular (FIG. 9A) and intracellular (FIG. 9B) levels of the p24 antigen | dose-dependently suppressive effect | no such loss of membrane integrity was noted | did not affect the position of this peak in uninfected CEM cells; also recorded: Only the virally-infected ACH-2, but not the parent CEM cells reacted to the inhibitors | – | – |
| N[C@@H](Cn1ccc(=O)c(O)c1)C(=O)O [L-Mimosine] | 65 | inhibitory effect on the intracellular (FIG. 8A) and extracellular (FIG. 8B) levels of the p24 antigen | dose-dependently suppressive effect | no such loss of membrane integrity was noted | did not affect the position of this peak in uninfected CEM cells; also recorded: Only the virally-infected ACH-2, but not the parent CEM cells reacted to the inhibitors | efficiently inhibit deoxyhypusyl hydroxylase activity | the position and shape of the average fluorescence peak in CEM cells did not change; also recorded: Only the virally infected ACH-2, but not the parent CEM cells reacted to the inhibitor |
